Consider 18 molecules from patent US11090304B2 (Amgen Inc., priority 2018, dated 2021).

By IC50 is commonly meant the midpoint of a concentration-inhibition curve.

Where two headings read alike, the source gives them in different places.

Experiment [1] deals with GDP-bound KRAS protein (aa 1-169), containing both G12C and C118A amino acid substitutions (Homo sapiens, UniProt P01116, C118A/G12C). As to the kind of experiment: Coupled nucleotide exchange assay (SOS-mediated, AlphaScreen). Type of experiment: biochemical. As to conditions: 5 min compound pre-incubation. Background: Bead proximity is the source of the signal in Alpha formats.

Experiment [2] deals with Phosphorylation of ERK1/2 in MIA PaCa-2 cells. Nature of the experiment: Phospho-ERK1/2 MSD assay in MIA PaCa-2 cells. Type of experiment: cell-based. As to conditions: read-out: p-ERK IC50 (2 h; MIA PaCa-2), 2 h compound treatment. In short, it runs like this:
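MSD electrochemiluminescence readout of phospho-ERK1/2 in whole-cell lysates, IC50 by 4-parameter logistic fit. Compound titrations were applied for 2 or 4 h at 37 °C, 5% CO2, followed by 10 ng/mL EGF stimulation for 10 min before lysis.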

Sequence of GDP-bound KRAS protein (aa 1-169), containing both G12C and C118A amino acid substitutions (P01116 1-169 isoform P01116-2 G12C/C118A): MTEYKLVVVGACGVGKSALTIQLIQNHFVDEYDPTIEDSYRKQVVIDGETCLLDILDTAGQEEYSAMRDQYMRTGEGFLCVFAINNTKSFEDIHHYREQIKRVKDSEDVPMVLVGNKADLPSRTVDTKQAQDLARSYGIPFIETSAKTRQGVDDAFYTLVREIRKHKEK

With `C=CC(=O)N1CCN(c2nc(=O)n(-c3c(C)cc[n+]([O-])c3C(C)C)c3nc(-c4ccccc4F)c(Cl)cc23)C(C)C1` (atropisomer, axis not shown; (M)) [Example 151, (M)-6-Chloro-7-(2-fluorophenyl)-1-(4-methyl-1-oxido-2-(2-propanyl)-3-pyridinyl)-4-((2S)-2-methyl-4-(2-propenoyl)-1-piperazinyl)pyrido[2,3-d]pyrimidin-2(1H)-one], the “Coupled exchange IC50 (5 min)” value in experiment [1] is listed as 0.065 | nda μM. The IC50 in experiment [2] (Homo sapiens, MIA PaCa-2, 2 h) was determined as 237 nM.

In the case of `C=CC(=O)N1CCN(c2nc(=O)n(-c3c(C)ccnc3C(C)C)c3nc(-c4c(F)ccc(C)c4O)c(F)cc23)[C@@H](C)C1` (atropisomer, axis not shown; (M)) [Example 72-10, (M)-6-fluoro-7-(6-fluoro-2-hydroxy-3-methylphenyl)-1-(4-methyl-2-(2-propanyl)-3-pyridinyl)-4-((2S)-2-methyl-4-(2-propenoyl)-1-piperazinyl)pyrido[2,3-d]pyrimidin-2(1H)-one], the “Coupled exchange IC50 (5 min)” value in experiment [1] was 0.158 | nda μM. In experiment [2] (Homo sapiens, MIA PaCa-2, 2 h), the IC50 is 150 nM.

Take `C=CC(=O)N1CCN(c2nc(=O)n(-c3ccccc3C(C)C)c3nc(-c4cc(O)ccc4F)c(Cl)cc23)[C@@H](C)C1` (single isomer, unassigned) [Example 54-88-1]: the “Coupled exchange IC50 (5 min)” value in experiment [1] was 0.077 | nda μM. Moreover, in experiment [2] (Homo sapiens, MIA PaCa-2, 2 h), the IC50 was 84 nM.

As for `C=CC(=O)N1CCN(c2nc(=O)n(-c3ncccc3C(C)C)c3nc(-c4ccccc4F)c(Cl)cc23)[C@@H](C)C1` [Example 60-28, 6-chloro-7-(2-fluorophenyl)-4-((2S)-2-methyl-4-(2-propenoyl)-1-piperazinyl)-1-(3-(2-propanyl)-2-pyridinyl)pyrido[2,3-d]pyrimidin-2(1H)-one], the “Coupled exchange IC50 (5 min)” value in experiment [1] is 0.101 | nda μM. In addition, the IC50 in experiment [2] (Homo sapiens, MIA PaCa-2, 2 h) came to 45 nM.

On to `C=CC(=O)N1CCN(c2nc(=O)n(-c3c(C)cccc3C(C)C)c3nc(-c4c(C)ccc5[nH]ncc45)c(F)cc23)[C@@H](C)C1` (single isomer, unassigned) [Example 68-2-2], for which the “Coupled exchange IC50 (5 min)” value in experiment [1] is recorded as 0.31 | nda μM. In experiment [2] (Homo sapiens, MIA PaCa-2, 2 h), the IC50 was 607 nM.

On to `C=CC(=O)N1CCN(c2nc(=O)n(-c3c(C(C)C)ccnc3C)c3nc(-c4ccccc4F)c(F)cc23)[C@@H](C)C1` (single isomer, unassigned) [Example 58-16-2], for which, in experiment [1], the “Coupled exchange IC50 (5 min)” value was 0.315 | nda μM. In experiment [2] (Homo sapiens, MIA PaCa-2, 2 h), the IC50 stood at 317 nM.

For the molecule `C=CC(=O)N1CCN(c2nc(=O)n(-c3c(C)cccc3C3CC3)c3nc(-c4c(O)cccc4F)c(Cl)cc23)[C@@H](C)C1` (single isomer, unassigned) [Example 55-15-2], the “Coupled exchange IC50 (5 min)” value in experiment [1] is listed as 0.061 | nda μM. Further, the IC50 in experiment [2] was determined as 76 nM.

On to `C=CC(=O)N1CCN(c2nc(=O)n(-c3ccccc3Cl)c3nc(-c4c(O)cccc4F)c(Cl)cc23)[C@@H](C)C1` [Example 54-35, 6-chloro-1-(2-chlorophenyl)-7-(2-fluoro-6-hydroxyphenyl)-4-((2S)-2-methyl-4-(2-propenoyl)-1-piperazinyl) pyrido[2,3-d]pyrimidin-2(1H)-one], for which the “Coupled exchange IC50 (5 min)” value in experiment [1] is recorded as 0.582 | nda μM. Also, the IC50 in experiment [2] (Homo sapiens, MIA PaCa-2, 2 h) amounted to 383 nM.

Regarding `C=CC(=O)N1CCN(c2nc(=O)n(-c3c(C)noc3C(C)C)c3nc(-c4c(O)cccc4F)c(Cl)cc23)[C@@H](C)C1` [Example 55-1, 6-Chloro-7-(2-fluoro-6-hydroxyphenyl)-1-(3-methyl-5-(2-propanyl)-1,2-oxazol-4-yl)-4-((2S)-2-methyl-4-(2-propenoyl)-1-piperazinyl)pyrido[2,3-d]pyrimidin-2(1H)-one], in experiment [1], the “Coupled exchange IC50 (5 min)” value is on record as 0.124 | nda μM. In addition, the IC50 in experiment [2] (Homo sapiens, MIA PaCa-2, 2 h) came out at 226 nM.

On to `C=CC(=O)N1CCN(c2nc(=O)n(-c3c(C)ccnc3C(C)C)c3nc(-c4ccccc4F)c(Cl)cc23)[C@H](C(F)F)C1` (single isomer, unassigned) [Example 78-3], for which the “Coupled exchange IC50 (5 min)” value in experiment [1] is on record as 0.141 | nda μM. Moreover, the IC50 in experiment [2] (Homo sapiens, MIA PaCa-2, 2 h) came out at 246 nM.

Take `C=CC(=O)N1CCN(c2nc(=O)n(-c3cccnc3C(C)C)c3nc(-c4ccccc4F)c(Cl)cc23)[C@@H](C)C1` (single isomer, unassigned) [Example 54-9-2]: the “Coupled exchange IC50 (5 min)” value in experiment [1] is reported as 0.046 | nda μM. The IC50 in experiment [2] was 34 nM.

Consider `C=CC(=O)N1CCN(c2nc(=O)n(-c3c(F)cccc3C(C)C)c3nc(-c4c(O)cccc4F)c(F)cc23)[C@@H](C)C1` (single isomer, unassigned) [Example 59-2-1], for which the “Coupled exchange IC50 (5 min)” value in experiment [1] is recorded as 0.112 | nda μM. For the same molecule, the IC50 in experiment [2] (Homo sapiens, MIA PaCa-2, 2 h) was determined as 137 nM.

Turning to `C=CC(=O)N1CCN(c2nc(=O)n(-c3c(C)ncnc3C(C)C)c3nc(-c4ccccc4F)c(F)cc23)[C@@H](C)C1` [Example 58-12, 6-fluoro-7-(2-fluorophenyl)-1-(4-methyl-6-(2-propanyl)-5-pyrimidinyl)-4-((2S)-2-methyl-4-(2-propenoyl)-1-piperazinyl)pyrido[2,3-d]pyrimidin-2(1H)-one], in experiment [1], the “Coupled exchange IC50 (5 min)” value was 0.953 | nda μM. Further, the IC50 in experiment [2] (Homo sapiens, MIA PaCa-2, 2 h) was 508 nM.

As for `C=CC(=O)N1CCN(c2nc(=O)n(-c3c(C(F)(F)F)ccnc3C(C)C)c3nc(-c4c(O)cccc4F)c(F)cc23)[C@@H](C)C1` (single isomer, unassigned) [Example 58-3-1], the “Coupled exchange IC50 (5 min)” value in experiment [1] is given as 0.097 | nda μM. In addition, in experiment [2], the IC50 amounted to 144 nM.

With `C=CC(=O)N1CCN(c2nc(=O)n(-c3c(C4CC4)ncnc3C3CC3)c3nc(-c4c(O)cccc4F)c(F)cc23)[C@@H](C)C1` [Example 59-4, 1-(4,6-dicyclopropyl-5-pyrimidinyl)-6-fluoro-7-(2-fluoro-6-hydroxyphenyl)-4-((2S)-2-methyl-4-(2-propenoyl)-1-piperazinyl)pyrido[2,3-d]pyrimidin-2(1H)-one], the “Coupled exchange IC50 (5 min)” value in experiment [1] was 0.133 | nda μM. The IC50 in experiment [2] (Homo sapiens, MIA PaCa-2, 2 h) was 163 nM.

For the molecule `C=CC(=O)N1CCN(c2nc(=O)n(-c3ncccc3CC)c3nc(-c4c(O)cccc4F)c(Cl)cc23)[C@@H](C)C1` [Example 54-16, 6-chloro-1-(3-ethyl-2-pyridinyl)-7-(2-fluoro-6-hydroxyphenyl)-4-((2S)-2-methyl-4-(2-propenoyl)-1-piperazinyl) pyrido[2,3-d]pyrimidin-2(1H)-one], in experiment [1], the “Coupled exchange IC50 (5 min)” value is given as 0.149 | nda μM. In experiment [2] (Homo sapiens, MIA PaCa-2, 2 h), the IC50 is 149 nM.

In the case of `C=CC(=O)N1CCN(c2nc(=O)n(C3CCC34CCCC4)c3nc(-c4c(O)cccc4F)c(Cl)cc23)[C@@H](C)C1` (stereo partly drawn) [Example 60-9, 6-chloro-7-(2-fluoro-6-hydroxyphenyl)-4-((2S)-2-methyl-4-(2-propenoyl)-1-piperazinyl)-1-(spiro[3.4]octan-1-yl)pyrido[2,3-d]pyrimidin-2(1H)-one], in experiment [1], the “Coupled exchange IC50 (5 min)” value is reported as 0.484 | nda μM. For the same molecule, the IC50 in experiment [2] (Homo sapiens, MIA PaCa-2, 2 h) is 1600 nM.

For the molecule `C=CC(=O)N1CCN(c2nc(=O)n(-c3c(C)cc(OC)nc3C(C)C)c3nc(-c4ccccc4F)c(Cl)cc23)[C@@H](C)C1` [Example 54-105, 6-chloro-7-(2-fluorophenyl)-1-(6-methoxy-4-methyl-2-(2-propanyl)-3-pyridinyl)-4-((2S)-2-methyl-4-(2-propenoyl)-1-piperazinyl) pyrido[2,3-d]pyrimidin-2(1H)-one], in experiment [1], the “Coupled exchange IC50 (5 min)” value is 0.07 | nda μM. The IC50 in experiment [2] (Homo sapiens, MIA PaCa-2, 2 h) is 89 nM.
